The values below come from patent US9216997B2, “Tri-heterocyclic derivatives, preparation process and uses thereof” (SHANGHAI DE NOVO PHARMATECH CO LTD., priority 2011, dated 2015).

The test system of one experiment is MV4-11 cell. In words: MV4-11 cell proliferation assay (CellTiter-Glo). It is filed as cell-based, human. Particulars: MV4-11 cells, 72 hours, read-out: IC50 inhibiting MV4-11 cell proliferation. The method, then:
Test compounds were prepared in 100% DMSO and added to the cells to achieve final concentrations from 0.2 uM to […] (10 concentration points in 3 fold serial dilution). The culture plates were then incubated at 37 C in 5% CO2 for 72 hours.
After 72 hours, the cell morphology was observed under an inverted microscope. Cell viability was then quantified at room temp using a CellTiter-Glo assay (Promega G7571) following the manufacture's instruction. Briefly, a volume of 100 ul Celltiter-Glo reagenet was added to each well to induce cell lysis. After 10 min incubation at RT, a luminescent signal was produced by measuring the amount of ATP. The signal was directly proportional to the number of viable cells present in culture.
A general note: ATP-based viability assays read luminescence as a measure of living cells.

The target in the next experiment is FLT3 (Homo sapiens (Human), UniProt P36888). In words: FLT3 kinase inhibition assay (Caliper mobility shift assay). Particulars: 0.9 nM purified FLT3, 97 uM ATP, 28° C., 60 min; read-out: IC50 inhibiting the FLT3 kinase. It is filed as biochemical. How it is done: The average of inhibitory rate of Flt3 kinase and IC50 was determined by a Caliper's mobility shift assay (MSA).
FLT3, sequence (P36888 27-993): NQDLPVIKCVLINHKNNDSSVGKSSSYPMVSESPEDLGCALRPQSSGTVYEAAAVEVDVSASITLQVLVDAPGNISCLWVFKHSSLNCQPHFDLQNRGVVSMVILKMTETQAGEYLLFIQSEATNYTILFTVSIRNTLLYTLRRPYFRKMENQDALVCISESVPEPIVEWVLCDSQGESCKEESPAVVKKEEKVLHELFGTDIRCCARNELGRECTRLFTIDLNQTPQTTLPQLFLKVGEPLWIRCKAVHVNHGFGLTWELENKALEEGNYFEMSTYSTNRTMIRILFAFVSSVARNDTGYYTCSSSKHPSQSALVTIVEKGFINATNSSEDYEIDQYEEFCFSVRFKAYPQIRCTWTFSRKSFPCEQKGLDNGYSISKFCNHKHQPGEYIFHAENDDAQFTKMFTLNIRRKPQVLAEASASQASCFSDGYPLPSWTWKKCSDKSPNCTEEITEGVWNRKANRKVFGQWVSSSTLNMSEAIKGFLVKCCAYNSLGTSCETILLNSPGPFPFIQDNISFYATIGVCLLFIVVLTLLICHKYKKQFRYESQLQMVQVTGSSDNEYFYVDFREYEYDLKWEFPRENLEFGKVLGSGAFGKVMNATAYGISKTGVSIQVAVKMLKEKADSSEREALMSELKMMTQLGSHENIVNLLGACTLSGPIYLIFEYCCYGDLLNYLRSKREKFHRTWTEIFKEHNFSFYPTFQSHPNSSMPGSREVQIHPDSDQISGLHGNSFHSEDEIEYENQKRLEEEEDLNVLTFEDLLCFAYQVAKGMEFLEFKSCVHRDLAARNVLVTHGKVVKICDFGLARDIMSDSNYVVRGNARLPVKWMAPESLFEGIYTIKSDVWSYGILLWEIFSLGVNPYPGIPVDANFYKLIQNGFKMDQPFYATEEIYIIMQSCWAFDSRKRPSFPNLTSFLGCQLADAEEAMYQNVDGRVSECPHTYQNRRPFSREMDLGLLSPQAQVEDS
FLT3 is a receptor tyrosine kinase involved in survival and proliferation of leukemic cells. Constitutively activating FLT3 mutations has been found in about 30% of all patients with acute myeloid leukemia (AML). The tested compounds were screened for their ability to inhibit FLT3 kinase activity using Caliper's mobility shift assay (MSA). The assay uses a microfluidic chip to measure the conversion of a fluorescent peptide substrate to a phosphorylated product following separation by electrophoresis.
Data were collected on Caliper and converted into inhibition values. IC50 values were obtained using XLfit graphic program.

For experiment [1], the system named is MV4-11 acute myeloid leukemia zenograft tumor model. In words: MV4-11 acute myeloid leukemia xenograft tumor model. It is filed as in vivo, NOD/SCID female mice. As to conditions: 3 mg/kg, po, qd, 22 days; tumor-bearing NOD/SCID mice. How it is done:
Compound C (18 mg) in 22% 2-hydroxypropyl-β=cyclodextrin (60 ml), ultrasonic 15 min to dissolve, an average of 2.14 ml divided into each of the small bottle, reserved 22 bottles for experiment.
6-8 weeks NOD/SCID female mice (18-25 g) were used. Each mouse was inoculated subcutaneously at the right flank with MV4-11 tumor cells (1×10^7) in 0.1 ml of PBS/Matrigel (1:1) for tumor development. The treatments were started when the mean tumor size reached 188 mm^3. The animals were separated even as test and control group randomly, and each group is consisted of 6 tumor-bearing mice. The test articles were orally administered (2.14 ml) to the tumor-bearing mice once a day. The date of tumor cell inoculation is denoted as day 0. The tumor volume was measured every four days, and the animals were scarified at 22 days. Statistical analyses of difference in tumor volume among the groups were evaluated using a one-way ANOVA followed by individual comparisons using Games-Howell (equal variance not assumed).
All data were analyzed using SPSS 17.0. p<0.05 was considered to be statistically significant. The antitumor activities of compounds of disclose are calculated by the formula: T C %=TRTV/CRTV×100%. (TRTV: drug treated group RTV; CRTV: vehicle treated group RTV). Evaluation standard: T/C (%)>40% considered as not effective; T/C (%) 40% considered as effective with P<0.05.

SMILES strings stand for the structures. Where two headings read alike, the source gives them in different places.

By T/C is commonly meant the result in the treated group divided by that in the control group, in per cent.

As to `CN1CCOC(COc2ccc3c(n2)sc2nc(-c4ccc(NC(=O)Nc5cc(C(C)(C)C)on5)cc4)cn23)C1` (centres unmarked) [compound 28-13], the IC50 in the experiment on MV4-11 cell (Homo sapiens) turned out to be 0.3 nM.

`CC(=O)NC1(COc2ccc3c(n2)sc2nc(-c4ccc(NC(=O)Nc5cc(C(C)(C)C)on5)cc4)cn23)CC1` [compound 35-2]: the IC50 in the experiment with MV4-11 cell (Homo sapiens) is 0.52 nM.

Turning to `CC(C)(C)c1cc(NC(=O)Nc2ccc(-c3cn4c(n3)sc3nc(N5CCOCC5)ncc34)cc2)no1` [compound 8-1], on FLT3, the IC50 was 19 nM.

For the compound `CN(C)CCNc1ncc2c(n1)sc1nc(-c3ccc(NC(=O)Nc4cc(C(C)(C)C)on4)cc3)cn12` [Compound 97-1], in the experiment on MV4-11 cell (Homo sapiens), the IC50 came out at 0.03 nM.

For the compound `CC(C)(C)c1cc(NC(=O)Nc2ccc(-c3cn4c(n3)sc3nc(OC[C@@H]5CCCN5)ccc34)cc2)no1` [compound 35-4], the IC50 in the experiment with MV4-11 cell (Homo sapiens) worked out at 0.9 nM.

For the compound `CC(C)(C)c1cc(NC(=O)Nc2ccc(-c3cn4c(n3)sc3nc(OCC5(N)CC5)ccc34)cc2)no1` [compound 35-1], the IC50 on FLT3 was determined as 38 nM; in the experiment on MV4-11 cell (Homo sapiens), 1.4 nM.

For `CC(C)(C)c1cc(NC(=O)Nc2ccc(-c3cn4c(n3)sc3nc(N5CCC(N6CCOCC6)CC5)ncc34)cc2)no1` [compound 8-6], the IC50 in the experiment on MV4-11 cell (Homo sapiens) is 1.26 nM.

Take `CC(C)(C)c1cc(NC(=O)Nc2ccc(-c3cn4c(n3)sc3nc(OCC5CNC5)ccc34)cc2)no1` [compound 28-11]: in the experiment on MV4-11 cell (Homo sapiens), the IC50 stood at 0.84 nM.

Turning to `CC(C)(C)c1cc(NC(=O)Nc2ccc(-c3cn4c(n3)sc3nc(OCC5(NS(C)(=O)=O)CC5)ccc34)cc2)no1` [compound 35-3], the IC50 with MV4-11 cell (Homo sapiens) is 12.9 nM.

`CNC1(CNc2ccc3c(n2)sc2nc(-c4ccc(NC(=O)Nc5cc(C(C)(C)C)on5)cc4)cn23)CC1` [compound 63-2]: the IC50 in the experiment with MV4-11 cell (Homo sapiens) was 0.58 nM.

Consider `CC(C)(C)c1cc(NC(=O)Nc2ccc(-c3cn4c(n3)sc3nc(NCCN5C[C@@H]6C[C@H]5CO6)ccc34)cc2)no1` [compound 89-4], for which the IC50 amounted to 28 nM on FLT3 and 0.08 nM in the experiment on MV4-11 cell.

As to `CC(C)(C)c1cc(NC(=O)Nc2ccc(-c3cn4c(n3)sc3nc(N5CCNCC5)ncc34)cc2)no1` [compound 8-4], the IC50 with MV4-11 cell (Homo sapiens) worked out at 1.1 nM.

Regarding `CC(C)(C)c1cc(NC(=O)Nc2ccc(-c3cn4c(n3)sc3nc(NCCN5CCOCC5)ccc34)cc2)no1` [compound 53-1], the values for the IC50 on FLT3 and with MV4-11 cell (Homo sapiens) were 29 nM and 0.2 nM, respectively.

In the case of `CNC1(COc2ccc3c(n2)sc2nc(-c4ccc(NC(=O)Nc5cc(C(C)(C)C)on5)cc4)cn23)CC1` [compound 39-1], the IC50 on FLT3 was 52 nM; in the experiment with MV4-11 cell it was 0.5 nM.

With `CCN(CC)CCNc1ncc2c(n1)sc1nc(-c3ccc(NC(=O)Nc4cc(C(C)(C)C)on4)cc3)cn12` [Compound 97-2], the IC50 in the experiment on MV4-11 cell (Homo sapiens) came out at 0.42 nM.

As for `CC(C)(C)c1cc(NC(=O)Nc2ccc(-c3cn4c(n3)sc3nc(OCCN5C[C@@H]6C[C@H]5CN6)ccc34)cc2)no1` [compound 28-7], the values for the IC50 on FLT3 and in the experiment with MV4-11 cell (Homo sapiens) were 1.2 nM and 0.3 nM, respectively.

Regarding `CC(C)(C)c1cc(NC(=O)Nc2ccc(-c3cn4c(n3)sc3nc(OCCN5CCNCC5)ccc34)cc2)no1` [compound 28-3], the IC50 at FLT3 came to 34 nM; in the experiment with MV4-11 cell (Homo sapiens) it was 0.4 nM.

In experiment [1], `CC(C)(C)c1cc(NC(=O)Nc2ccc(-c3cn4c(n3)sc3cc(OCCN5CCOCC5)ccc34)cc2)no1` [Quizartinib, reference compound] gave a T/C of 9%. Further, the IC50 in the experiment on MV4-11 cell (Homo sapiens) was 0.56 nM.

Regarding `CN(CCN1CCOCC1)c1ccc2c(n1)sc1nc(-c3ccc(NC(=O)Nc4cc(C(C)(C)C)on4)cc3)cn12` [compound 53-2], the IC50 on FLT3 came out at 43 nM; with MV4-11 cell (Homo sapiens), 0.5 nM.

In the case of `CC(C)(C)c1cc(NC(=O)Nc2ccc(-c3cn4c(n3)sc3nc(N5CCOCC5)ccc34)cc2)no1` [compound 46], the IC50 in the experiment on MV4-11 cell (Homo sapiens) is 0.8 nM.

In the case of `CN(C)CCOc1ccc2c(n1)sc1nc(-c3ccc(NC(=O)Nc4cc(C(C)(C)C)on4)cc3)cn12` [compound 28-2], the results for the IC50 on FLT3 and with MV4-11 cell (Homo sapiens) were 18 nM and 0.2 nM, respectively.

Consider `CCN(CC)CCNc1ccc2c(n1)sc1nc(-c3ccc(NC(=O)Nc4cc(C(C)(C)C)on4)cc3)cn12` [compound 89-3], for which the figures for the IC50 on FLT3 and in the experiment on MV4-11 cell were 19 nM and 0.04 nM, respectively.

Consider `CC(C)(C)c1cc(NC(=O)Nc2ccc(-c3cn4c(n3)sc3nc(OCCCN5CCOCC5)ccc34)cc2)no1` [compound 28-6], for which the IC50 at FLT3 was 47 nM; in the experiment with MV4-11 cell (Homo sapiens), 0.4 nM.

For `CC(C)(C)c1cc(NC(=O)Nc2ccc(-c3cn4c(n3)sc3nc(OCC5CNCCO5)ccc34)cc2)no1` (centres unmarked) [compound 28-12], the IC50 in the experiment with MV4-11 cell (Homo sapiens) worked out at 0.47 nM.

As for `CC(C)(C)c1cc(NC(=O)Nc2ccc(-c3cn4c(n3)sc3nc(OCCN5C[C@@H]6C[C@H]5CO6)ccc34)cc2)no1` [compound 28-15], the IC50 came out at 68 nM at FLT3 and 0.05 nM in the experiment on MV4-11 cell (Homo sapiens).

Consider `CC(C)(C)c1cc(NC(=O)Nc2ccc(-c3cn4c(n3)sc3nc(OCCN5CCOCC5)ccc34)cc2)no1` [compound 28-1], for which, in the experiment on MV4-11 cell (Homo sapiens), the IC50 is 0.7 nM.

`CC(C)(C)c1cc(NC(=O)Nc2ccc(-c3cn4c(n3)sc3nc(OCC5CCNCC5)ccc34)cc2)no1` [compound 28-9]: the IC50 on FLT3 was 11 nM; in the experiment on MV4-11 cell (Homo sapiens), 0.3 nM.

Regarding `CC(C)(C)c1cc(NC(=O)Nc2ccc(-c3cn4c(n3)sc3nc(NCCN5C[C@@H]6C[C@H]5CO6)ncc34)cc2)no1` [Compound 97-3], the IC50 with MV4-11 cell (Homo sapiens) was 0.07 nM.

For `CN(C)CCNc1ccc2c(n1)sc1nc(-c3ccc(NC(=O)Nc4cc(C(C)(C)C)on4)cc3)cn12` [compound 89-1], the IC50 was 10 nM on FLT3 and 0.03 nM in the experiment on MV4-11 cell.

Turning to `CC(C)(C)c1cc(NC(=O)Nc2ccc(-c3cn4c(n3)sc3nc(NCC5(N)CC5)ccc34)cc2)no1` [compound 63-1], in the experiment on MV4-11 cell (Homo sapiens), the IC50 is 0.96 nM.

On to `CN1C[C@@H]2C[C@H]1CN2CCOc1ccc2c(n1)sc1nc(-c3ccc(NC(=O)Nc4cc(C(C)(C)C)on4)cc3)cn12` [compound 28-8], for which the IC50 was 10.9 nM at FLT3 and 0.2 nM in the experiment on MV4-11 cell (Homo sapiens).

With `CC(C)(C)c1cc(NC(=O)Nc2ccc(-c3cn4c(n3)sc3nc(N5CCC(N6CCOCC6)CC5)ccc34)cc2)no1` [compound 89-5], the IC50 amounted to 34 nM at FLT3 and 0.29 nM in the experiment on MV4-11 cell.

As for `CNC1(COc2ccc3c(c2)sc2cc(-c4ccc(NC(=O)Nc5cc(C(C)(C)C)on5)cc4)cn23)CC1` [compound 80], the IC50 with MV4-11 cell (Homo sapiens) amounted to 4.7 nM.

With `CCN(CC)CCOc1ccc2c(n1)sc1nc(-c3ccc(NC(=O)Nc4cc(C(C)(C)C)on4)cc3)cn12` [compound 28-14], the IC50 came out at 9.6 nM at FLT3 and 0.03 nM with MV4-11 cell (Homo sapiens).

`CN1CCC(COc2ccc3c(n2)sc2nc(-c4ccc(NC(=O)Nc5cc(C(C)(C)C)on5)cc4)cn23)CC1` [compound 28-10]: the IC50 came out at 13 nM on FLT3 and 0.3 nM in the experiment on MV4-11 cell (Homo sapiens).
